target: T1, CARM1 (Homo sapiens, UniProt Q86X55); test: CARM1 enzyme assay on peptide substrate (3H-SAM Flashplate); assay type: biochemical; details: CARM1 0.25 nM, 3H-SAM 30 nM, peptide 250 nM, 30 min preincubation; read-out: Biochem IC50
T1 construct: Flag-CARM1-His; made in house; host or cells: HEK 293F cells infected with recombinant baculovirus (pFastBacMam)
T1 sequence (Q86X55 1-585 isoform Q86X55-1): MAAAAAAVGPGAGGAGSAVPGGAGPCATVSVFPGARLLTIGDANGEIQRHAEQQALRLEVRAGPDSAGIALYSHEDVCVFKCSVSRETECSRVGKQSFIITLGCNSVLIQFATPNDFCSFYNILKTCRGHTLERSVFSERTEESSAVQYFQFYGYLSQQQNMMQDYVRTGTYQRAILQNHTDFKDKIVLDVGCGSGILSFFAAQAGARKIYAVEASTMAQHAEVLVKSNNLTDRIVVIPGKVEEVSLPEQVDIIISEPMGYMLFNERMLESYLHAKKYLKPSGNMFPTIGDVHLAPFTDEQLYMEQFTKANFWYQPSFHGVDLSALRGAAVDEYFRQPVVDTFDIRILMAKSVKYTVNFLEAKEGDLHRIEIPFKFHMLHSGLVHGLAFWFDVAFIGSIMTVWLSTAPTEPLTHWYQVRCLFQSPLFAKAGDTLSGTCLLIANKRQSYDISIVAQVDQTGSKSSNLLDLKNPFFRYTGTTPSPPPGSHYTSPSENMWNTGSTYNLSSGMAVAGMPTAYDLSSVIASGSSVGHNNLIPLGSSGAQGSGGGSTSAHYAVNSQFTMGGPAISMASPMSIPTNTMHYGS
From the text: S-adenosylmethionine (SAM), S-adenosylhomocysteine (SAH), bicine, Tween20, dimethylsulfoxide (DMSO), bovine skin gelatin (BSG), sodium butyrate and Tris(2-carboxyethyl)phosphine hydrochloride solution (TCEP) were purchased from Sigma-Aldrich at the highest level of purity possible. ^3H-SAM was purchase from American Radiolabeled Chemicals with a specific activity of 80 Ci/mmol. 384-well streptavidin Flashplates were purchased from PerkinElmer.
Peptide representative of human histone H3 residues 16-30 was synthesized with an N-terminal linker-affinity tag motif and a C-terminal amide cap by 21^St Century Biochemicals. The peptide was purified by high-performance liquid chromatography (HPLC) to greater than 95% purity and confirmed by liquid chromatography mass spectrometry (LC-MS). The sequence was Biot-Ahx-[…]-amide and contained a monomethylated arginine at position 26 (SEQ ID NO.:1).
Human CARM1 (PRMT4) (NM_199141.1) transcript clone was amplified from an HEK 293 cDNA library, incorporating a flanking 5′ sequence encoding a FLAG tag ([…]) (SEQ ID NO.:2) fused directly to Ala 2 of CARM1 and 3′ sequence encoding a hexa His sequence ([…]) (SEQ ID NO.:3) fused directly to Ser 608. The gene sequence encoding isoform1 containing a deletion of amino acids 539-561 was amplified subsequently and subcloned into pFastBacMam (Viva Biotech). Protein Expression
Recombinant baculovirus were generated according to Bac-to-Bac kit instructions (Life Technologies). Protein over-expression was accomplished by infecting exponentially growing HEK 293F cell culture at 1.3×10^6 cell/ml with virus (MOI=10) in the presence of 8 mM sodium butyrate. Infections were carried out at 37° C. for 48 hours, harvested by centrifugation, and stored at −80° C. for purification.
Column was washed with 500 mM NaCl in buffer A and Flag-CARM1-His was eluted with 200 ug/ml FLAG peptide in buffer A. Pooled fractions were dialyzed in 20 mM Tris, 150 mM NaCl, 5% glycerol and 1 mM DTT, pH 7.8. The purity of recovered protein was 94.
General Procedure for CARM1 Enzyme Assays on Peptide Substrates
The assays were all performed in a buffer consisting of 20 mM Bicine (pH=7.6), 1 mM TCEP, 0.005% BSG, and 0.002% Tween 20, prepared on the day of use. Compounds in 100% DMSO (1 ul) were spotted into a polypropylene 384-well V-bottom plates (Greiner) using a Platemate Plus outfitted with a 384-channel head (Thermo Scientific). DMSO (1 ul) was added to Columns 11, 12, 23, 24, rows A-H for the maximum signal control and 1 ul of SAH, a known product and inhibitor of CARM1, was added to columns 11, 12, 23, 24, rows I-P for the minimum signal control. A cocktail (40 ul) containing the CARM1 enzyme was added by Multidrop Combi (Thermo-Fisher). The compounds were allowed to incubate with CARM1 for 30 min at room temperature, then a cocktail (10 ul) containing ^3H-SAM and peptide was added to initiate the reaction (final volume=51 ul). The final concentrations of the components were as follows: CARM1 was 0.25 nM, ^3H-SAM was 30 nM, peptide was 250 nM, SAH in the minimum signal control wells was 1 mM, and the DMSO concentration was 2%. The assays were stopped by the addition of non-radiolabeled SAM (10 ul) to a final concentration of 300 uM, which dilutes the ^3H-SAM to a level where its incorporation into the peptide substrate is no longer detectable. 50 ul of the reaction in the 384-well polypropylene plate was then transferred to a 384-well Flashplate and the biotinylated peptides were allowed to bind to the streptavidin surface for at least 1 hour before being washed once with 0.1% Tween20 in a Biotek ELx405 plate washer. The plates were then read in a PerkinElmer TopCount plate reader to measure the quantity of ^3H-labeled peptide bound to the Flashplate surface, measured as disintegrations per minute (dpm) or alternatively, referred to as counts per minute (cpm). […]

Structure (SMILES) | IC50 [nM]
CC(C)n1ncc2c(NCc3cccnc3)cc(-c3cccc(OCC(O)CN)c3)nc21 (stereo not drawn) [Example 25-1] | 3000 to 10000
CC(C)n1ncc2c(NCC3CCOCC3)cc(-c3cccc(OCC(O)CN)c3)nc21 (stereo not drawn) [Example 30-1] | < 100
CC(C)n1ncc2c(NC3CCOCC3)cc(-c3cccc(OCC(O)CN)c3)nc21 (stereo not drawn) [Example 19-1] | 100 to 1000
CNCC(O)COc1cccc(-c2cc(NCCCN)c3cnn(C(C)C)c3n2)c1 (stereo not drawn) [Example 15-1] | 100 to 1000
CCOC(=O)Nc1cc(-c2cccc(OCC(O)CN)c2)nc2c1cnn2C(C)C (stereo not drawn) [Example 17-1] | 100 to 1000
CC(C)n1ncc2c(NC3CC3)cc(-c3cccc(OCC(O)CN)c3)nc21 (stereo not drawn) [Example 6-1] | 100 to 1000
CNCC(O)COc1cccc(-c2cc(NC(=O)OC)c3cnn(C(C)C)c3n2)c1 (stereo not drawn) [Example 16-1] | 100 to 1000
Cc1c(CNc2cc(-c3cccc(OCC(O)CN)c3)nc3c2cnn3C(C)C)cnn1C (stereo not drawn) [Example 37-1] | 3000 to 10000
CNCC(O)COc1cccc(-c2cc(N)c3cnn(C(C)C)c3n2)c1 (stereo not drawn) [Example 4-1] | 1000 to 3000
COC(=O)Nc1cc(-c2cccc(OCC(O)CN)c2)nc2c1cnn2C(C)C (stereo not drawn) [Example 10-1] | 100 to 1000
CC(C)n1ncc2c(NC(=O)N(C)C)cc(-c3cccc(OCC(O)CN)c3)nc21 (stereo not drawn) [Example 14-1] | 100 to 1000
CNCC(O)COc1cccc(-c2cc(NCc3ccccn3)c3cnn(C(C)C)c3n2)c1 (stereo not drawn) [Example 34-1] | 100 to 1000
CNCC(O)COc1cccc(-c2cc(NC3CCOCC3)c3cnn(C(C)C)c3n2)c1 (stereo not drawn) [Example 29-1] | 3000 to 10000
CNCC(O)COc1cccc(-c2cc(NCCN)c3cnn(C(C)C)c3n2)c1 (stereo not drawn) [Example 9-1] | 100 to 1000
CC(C)n1ncc2c(N3CCOCC3)cc(-c3cccc(OCC(O)CN)c3)nc21 (stereo not drawn) [Example 3-1] | < 100
CC(C)n1ncc2c(N[C@H]3CO[C@@H]4OCC[C@@H]43)cc(-c3cccc(OCC(O)CN)c3)nc21 (stereo partly drawn) [Example 38-1] | < 100

Structure (SMILES) | IC50 [nM]
CNCC(O)COc1cccc(-c2cc(NC(=O)N(C)C)c3cnn(C(C)C)c3n2)c1 (stereo not drawn) [Example 21-1] | 100 to 1000
CNCC(O)COc1cccc(-c2cc(NC)c3cnn(C(C)C)c3n2)c1 (stereo not drawn) [Example 5-1] | 100 to 1000
CNCC(O)COc1cccc(-c2cc(NCCCCN)c3cnn(C(C)C)c3n2)c1 (stereo not drawn) [Example 22-1] | < 100
CC(C)n1ncc2c(NS(=O)(=O)N(C)C)cc(-c3cccc(OCC(O)CN)c3)nc21 (stereo not drawn) [Example 36-1] | < 100
CC(C)n1ncc2c(NCc3cccc(O)c3)cc(-c3cccc(OCC(O)CN)c3)nc21 (stereo not drawn) [Example 35-1] | 100 to 1000
CNCC(O)COc1cccc(-c2cc(NC(=O)NC)c3cnn(C(C)C)c3n2)c1 (stereo not drawn) [Example 13-1] | < 100
CC(C)n1ncc2c(NCc3ccncc3)cc(-c3cccc(OCC(O)CN)c3)nc21 (stereo not drawn) [Example 26-1] | < 100
CNCC(O)COc1cccc(-c2cc(NCc3nnn[nH]3)c3cnn(C(C)C)c3n2)c1 (stereo not drawn) [Example 27-1] | < 100
CNCC(O)COc1cccc(-c2cc(N3CCOCC3)c3cnn(C(C)C)c3n2)c1 (stereo not drawn) [Example 20-1] | < 100
CNCC(O)COc1cccc(-c2cc(NC3CC3)c3cnn(C(C)C)c3n2)c1 (stereo not drawn) [Example 7-1] | 100 to 1000
CNC(=O)Nc1cc(-c2cccc(OCC(O)CN)c2)nc2c1cnn2C(C)C (stereo not drawn) [Example 8-1] | 100 to 1000
CNCC(O)COc1cccc(-c2cc(NC(=O)NC3CCOCC3)c3cnn(C(C)C)c3n2)c1 (stereo not drawn) [Example 2-1] | < 100
CNCC(O)COc1cccc(-c2cc(NCC(=O)OC)c3cnn(C(C)C)c3n2)c1 (stereo not drawn) [Example 23-1] | 100 to 1000
COC(=O)CNc1cc(-c2cccc(OCC(O)CN)c2)nc2c1cnn2C(C)C (stereo not drawn) [Example 18-1] | 100 to 1000
CC(C)n1ncc2c(N3CCOCC3)cc(-c3cccc(OCC(O)CN)c3)nc21 (stereo not drawn) [Example 11-1] | 100 to 1000

Results, then the compound that gave them:

IC50 [nM] | Structure (SMILES)
< 100 | CC(C)n1ncc2c(NC(=O)OCc3ccccc3)cc(-c3cccc(OCC(O)CN)c3)nc21 (stereo not drawn) [Example 51-1]
< 100 | CNCC(O)COc1cccc(-c2cc(N3CCC(C(=O)OC)CC3)c3cnn(C(C)C)c3n2)c1 (stereo not drawn) [Example 52-1]
100 to 1000 | CNCC(O)COc1cccc(-c2cc(NC(=O)OCc3ccccc3)c3cnn(C(C)C)c3n2)c1 (stereo not drawn) [Example 54-1]
100 to 1000 | CNCC(O)COc1cccc(-c2cc(NCc3c(C)cc(C)nc3OC)c3cnn(C(C)C)c3n2)c1 (stereo not drawn) [Example 57-1]
100 to 1000 | CNCC(O)COc1cccc(-c2cc(NCCNC(=O)c3ccn(C)n3)c3cnn(C(C)C)c3n2)c1 (stereo not drawn) [Example 58-1]
< 100 | CNCC(O)COc1cccc(-c2cc(NCCCCCNC(=O)c3ccn(C)n3)c3cnn(C(C)C)c3n2)c1 (stereo not drawn) [Example 64-1]
< 100 | CNCC(O)COc1cccc(-c2cc(NS(=O)(=O)N(C)C)c3cnn(C(C)C)c3n2)c1 (stereo not drawn) [Example 45-1]
< 100 | CNCC(O)COc1cccc(-c2cc(NCC3CCOCC3)c3cnn(C(C)C)c3n2)c1 (stereo not drawn) [Example 41-1]
100 to 1000 | CNCC(O)COc1cccc(-c2cc(N(C)Cc3ccccn3)c3cnn(C(C)C)c3n2)c1 (stereo not drawn) [Example 44-1]
< 100 | CNCC(O)COc1cccc(-c2cc(N(C)CC3CCOCC3)c3cnn(C(C)C)c3n2)c1 (stereo not drawn) [Example 48-1]
< 100 | CNCC(O)COc1cccc(-c2cc(NCc3cnn(C)c3C)c3cnn(C(C)C)c3n2)c1 (stereo not drawn) [Example 46-1]
100 to 1000 | CNCC(O)COc1cccc(-c2cc(NCCCCCNC(=O)c3cccnc3)c3cnn(C(C)C)c3n2)c1 (stereo not drawn) [Example 63-1]
100 to 1000 | CNCC(O)COc1cccc(-c2cc(NCCCCCCN)c3cnn(C(C)C)c3n2)c1 (stereo not drawn) [Example 43-1]
100 to 1000 | CNCC(O)COc1cccc(-c2cc(NCCCCCCNC(=O)c3ccn(C)n3)c3cnn(C(C)C)c3n2)c1 (stereo not drawn) [Example 66-1]
< 100 | CC(C)n1ncc2c(N(C)CC3CCOCC3)cc(-c3cccc(OCC(O)CN)c3)nc21 (stereo not drawn) [Example 42-1]
100 to 1000 | CNCC(O)COc1cccc(-c2cc(NCCCCNC(=O)c3ccn(C)n3)c3cnn(C(C)C)c3n2)c1 (stereo not drawn) [Example 62-1]
< 100 | CC(C)n1ncc2c(NCc3cnc4ccccn34)cc(-c3cccc(OCC(O)CN)c3)nc21 (stereo not drawn) [Example 50-1]
100 to 1000 | CNCC(O)COc1cccc(-c2cc(N(C)C3CCOCC3)c3cnn(C(C)C)c3n2)c1 (stereo not drawn) [Example 40-1]
100 to 1000 | CNCC(O)COc1cccc(-c2cc(NCCCCNC(=O)c3cccnc3)c3cnn(C(C)C)c3n2)c1 (stereo not drawn) [Example 61-1]
100 to 1000 | CNCC(O)COc1cccc(-c2cc(N[C@H]3CO[C@@H]4OCC[C@@H]43)c3cnn(C(C)C)c3n2)c1 (stereo partly drawn) [Example 47-1]
